The values below come from patent US10807995B2, “Thienothiophene compounds for long-acting injectable compositions and related methods” (priority 2018, dated 2020).

“And” between values parts separate entries of the source, which are not always exact repeats. Equal values may be shown once. Bounds are passed on as bounds.

The nature of data set [1]: Pharmacokinetic evaluation of the release of naltrexone from Compound 3 in rats following a single intramuscular injection. It counts as in vivo, Sprague-Dawley rats. As to conditions: for Compound 3 conc.: plasma of individual rats (Rat 1-6). The method, then:
Six male Sprague-Dawley rats were allowed to acclimate to the test facility for at least 3 days prior to study start. For dose administration of Compound 3, the rats were lightly anesthetized with isofluorane, the hind leg shaved and dosed intramuscularly with the formulation using a 20 G needle. […] Serial whole blood samples were collected via sublingual route (˜150 μL) at 1, 8, and 24 hours post dose, and at 2, 4, 7, 10, 15, 22, 24, 28, 35, 42, 49, 56 and 63 days post dose.
Blood samples were placed into K2EDTA blood collection tubes. After collection, blood samples were maintained chilled (on wet ice) and centrifuged (11,500 rpm for 2 minutes at 5 degrees C.) within 30 minutes to obtain plasma. Plasma was transferred into a single vial, 1.5 mL screw cap micro-centrifuge tube with inserts and stored at −80 degrees C. until analysis.
The formulation dosed was a crystalline suspension of Compound 3 (44.4 milligrams of Compound 3 dosed per animal), wherein the crystalline test article was characterized with a particle size distribution of Dv10=1.6 μm, Dv50=4.1 μm, and Dv90=7.7 μm (as measured via laser diffraction). The formulation was prepared the day before dosing. Details of the formulation dosed are described in Table D below.
Results of the above intramuscular rat study of Compound 3 are shown in Tables E and F. In particular, Table E reports the average blood plasma levels of naltrexone in rat (n=6) over 63 days following intramuscular administration.

Data set [2] can be described thus: Whole blood stability assay. It counts as in vitro ADME. As to conditions: prodrug 50 nM in fresh pooled human whole blood, 37 degrees C.; read-out: t1/2 at 37 degrees C. in human whole blood. On the procedure:
Naltrexone prodrug stability was assessed using freshly collected whole blood (within 24-hr collection) from pooled human (n=3) donors. The incubation mixtures were prepared by spiking the prodrugs into pre-warmed (37 degrees C.) fresh whole blood to a final concentration of 50 nM. After gentle mixing, aliquots of incubation mixtures were immediately transferred into four different 96-deep well plates. One plate was used for each time point. The plates were incubated at 37 degrees C. at a shaking speed of 100 rpm. At time points 15, 30, 60 and 120 minutes, the reaction was quenched by addition of a mixture of water and acetonitrile containing the internal standard (naltrexone-D3). Time point 0 minutes was prepared separately by spiking the prodrugs into a quenched whole blood to obtain a final concentration of 50 nM. All samples were vortexed at a low speed for 15 min and centrifuged at 3900 rpm for 15 min. Supernatants were transferred into 96-well plates for LC-MS/MS analysis to monitor the depletion of the prodrugs and the formation of naltrexone.
The amount of remaining prodrug and released naltrexone for each sample was quantitated against the calibration curves prepared with the whole blood. The human whole blood was purchased from BioreclamationIVT (Westbury, N.Y., USA). Naltrexone-D3 was purchased from Cerilliant® (Round Rock, Tex., USA). […] Where multiple runs have been completed, average values are reported.

Where [3] appears, read: rat plasma over 63 days after single IM Compound 3.

For the compound `O=C(O)Cc1cc2sc(CC(=O)Oc3ccc4c5c3O[C@H]3C(=O)CC[C@@]6(O)[C@@H](C4)N(CC4CC4)CC[C@]536)cc2s1` [Compound 3i, 2-(5-(2-(((4R,4aS,7aR,12bS)-3-(cyclopropylmethyl)-4a-hydroxy-7-oxo-2,3,4,4a,5,6,7,7a-octahydro-1H-4,12-methanobenzofuro[3,2-e]isoquinolin-9-yl)oxy)-2-oxoethyl)thieno[3,2-b]thiophen-2-yl)acetic acid], in data set [1] (setting [3]), the “concentrations of the resultant intermediate Compound 3i” value was “generally low to not measurable”. Besides, the “Compound 3i conc.” value in data set [1] (resultant intermediate in plasma of individual rats (Rat 1-6) after single IM Compound 3, day 2) was under 0.2 ng/mL; in data set [1] (resultant intermediate in plasma of individual rats (Rat 1-6) after single IM Compound 3, day 4), under 0.2 ng/mL; in data set [1] (resultant intermediate in plasma of individual rats (Rat 1-6) after single IM Compound 3, day 7) it was under 0.2 ng/mL; in data set [1] (resultant intermediate in plasma of individual rats (Rat 1-6) after single IM Compound 3, day 10) it was under 0.2 ng/mL; in data set [1] (resultant intermediate in plasma of individual rats (Rat 1-6) after single IM Compound 3, day 15), under 0.2 ng/mL; in data set [1] (resultant intermediate in plasma of individual rats (Rat 1-6) after single IM Compound 3, day 22), under 0.2 ng/mL. Besides, the “Compound 3i conc.” value in data set [1] (resultant intermediate in plasma of individual rats (Rat 1-6) after single IM Compound 3, day 24) was under 0.2 ng/mL; in data set [1] (resultant intermediate in plasma of individual rats (Rat 1-6) after single IM Compound 3, day 28), under 0.2 ng/mL; in data set [1] (resultant intermediate in plasma of individual rats (Rat 1-6) after single IM Compound 3, day 35) it was under 0.2 ng/mL; in data set [1] (resultant intermediate in plasma of individual rats (Rat 1-6) after single IM Compound 3, day 42) it was <0.2 ng/mL (4×) and 0.805 ng/mL and 0.149 ng/mL.
For the compound `O=C(Oc1ccc2c3c1O[C@H]1C(=O)CC[C@@]4(O)[C@@H](C2)N(CC2CC2)CC[C@]314)c1ccc(C(=O)Oc2ccc3c4c2O[C@H]2C(=O)CC[C@@]5(O)[C@@H](C3)N(CC3CC3)CC[C@]425)cc1` [Reference Compound A, NTX-3-terephthaloyl-NTX, reference compound], in data set [2], the half-life at 50 nM stood at 54.7 min.
In the case of `O=C(Cc1cc2sc(CC(=O)Oc3ccc4c5c3O[C@H]3C(=O)CC[C@@]6(O)[C@@H](C4)N(CC4CC4)CC[C@]536)cc2s1)Oc1ccc2c3c1O[C@H]1C(=O)CC[C@@]4(O)[C@@H](C2)N(CC2CC2)CC[C@]314` [Compound 3, bis((4R,4aS,7aR,12bS)-3-(cyclopropylmethyl)-4a-hydroxy-7-oxo-2,3,4,4a,5,6,7,7a-octahydro-1H-4,12-methanobenzofuro[3,2-e]isoquinolin-9-yl) 2,2′-(thieno[3,2-b]thiophene-2,5-diyl)diacetate], in data set [2], the half-life at 50 nM was 6.46 min. Besides, in data set [1] (in rats over 63 days), the “conversion of Compound 3 to naltrexone” value is reported as “efficient conversion”. Besides, the “Compound 3 conc.” value in data set [1] (single IM Compound 3, day 0.042 (1 hr)) was under 0.1 ng/mL; in data set [1] (single IM Compound 3, day 0.33 (8 hr)), under 0.1 ng/mL; in data set [1] (single IM Compound 3, day 1) it was under 0.1 ng/mL; in data set [1] (single IM Compound 3, day 2), under 0.1 ng/mL; in data set [1] (single IM Compound 3, day 4) it was under 0.1 ng/mL; in data set [1] (single IM Compound 3, day 7) it was <0.1 ng/mL (5×) and 0.161 ng/mL. For the same compound, the “Compound 3 conc.” value in data set [1] (single IM Compound 3, day 10) is listed as under 0.1 ng/mL; in data set [1] (single IM Compound 3, day 15), under 0.1 ng/mL; in data set [1] (single IM Compound 3, day 22), under 0.1 ng/mL; in data set [1] (single IM Compound 3, day 24), under 0.1 ng/mL; in data set [1] (single IM Compound 3, day 28), under 0.1 ng/mL; in data set [1] (single IM Compound 3, day 35), under 0.1 ng/mL. The “Compound 3 conc.” value is <0.1 ng/mL (5×) and 0.128 ng/mL in data set [1] (single IM Compound 3, day 42); 0.134 ng/mL and 0.131 ng/mL and 0.138 ng/mL and <0.1 ng/mL (2×) and 0.143 ng/mL in data set [1] (single IM Compound 3, day 49); 2.02 ng/mL and 0.753 ng/mL and 0.501 ng/mL and 0.281 ng/mL and 0.245 ng/mL and 0.237 ng/mL in data set [1] (single IM Compound 3, day 56); 0.184 ng/mL and 0.229 ng/mL and 0.223 ng/mL and 0.234 ng/mL and 0.255 ng/mL and 0.207 ng/mL in data set [1] (single IM Compound 3, day 63). The “concentrations of parent Compound 3” value in data set [1] (setting [3]) is given as “generally low to not measurable”.
With `O=C(Cc1csc2scc(CC(=O)Oc3ccc4c5c3O[C@H]3C(=O)CC[C@@]6(O)[C@@H](C4)N(CC4CC4)CC[C@]536)c12)Oc1ccc2c3c1O[C@H]1C(=O)CC[C@@]4(O)[C@@H](C2)N(CC2CC2)CC[C@]314` [Compound 2, bis((4R,4aS,7aR,12bS)-3-(cyclopropylmethyl)-4a-hydroxy-7-oxo-2,3,4,4a,5,6,7,7a-octahydro-1H-4,12-methanobenzofuro[3,2-e]isoquinolin-9-yl) 2,2′-(thieno[2,3-b]thiophene-3,4-diyl)diacetate], in data set [2], the half-life at 50 nM turned out to be 15.7 min.
Same read-out and setting: for `O=C(Cc1csc2c(CC(=O)Oc3ccc4c5c3O[C@H]3C(=O)CC[C@@]6(O)[C@@H](C4)N(CC4CC4)CC[C@]536)csc12)Oc1ccc2c3c1O[C@H]1C(=O)CC[C@@]4(O)[C@@H](C2)N(CC2CC2)CC[C@]314` [Compound 6, bis((4R,4aS,7aR,12bS)-3-(cyclopropylmethyl)-4a-hydroxy-7-oxo-2,3,4,4a,5,6,7,7a-octahydro-1H-4,12-methanobenzofuro[3,2-e]isoquinolin-9-yl) 2,2′-(thieno[3,2-b]thiophene-3,6-diyl)diacetate] the value was 11 min; for `Cc1c(CC(=O)Oc2ccc3c4c2O[C@H]2C(=O)CC[C@@]5(O)[C@@H](C3)N(CC3CC3)CC[C@]425)sc2c(C)c(CC(=O)Oc3ccc4c5c3O[C@H]3C(=O)CC[C@@]6(O)[C@@H](C4)N(CC4CC4)CC[C@]536)sc12` [Compound 4, bis((4R,4aS,7aR,12bS)-3-(cyclopropylmethyl)-4a-hydroxy-7-oxo-2,3,4,4a,5,6,7,7a-octahydro-1H-4,12-methanobenzofuro[3,2-e]isoquinolin-9-yl) 2,2′-(3,6-dimethylthieno[3,2-b]thiophene-2,5-diyl)diacetate], 20.7 min; for `O=C(Cc1cc2cc(CC(=O)Oc3ccc4c5c3O[C@H]3C(=O)CC[C@@]6(O)[C@@H](C4)N(CC4CC4)CC[C@]536)sc2s1)Oc1ccc2c3c1O[C@H]1C(=O)CC[C@@]4(O)[C@@H](C2)N(CC2CC2)CC[C@]314` [Compound 1, bis((4R,4aS,7aR,12bS)-3-(cyclopropylmethyl)-4a-hydroxy-7-oxo-2,3,4,4a,5,6,7,7a-octahydro-1H-4,12-methanobenzofuro[3,2-e]isoquinolin-9-yl) 2,2′-(thieno[2,3-b]thiophene-2,5-diyl)diacetate], 11 min.
On to `O=C(CCc1cc2sc(CCC(=O)Oc3ccc4c5c3O[C@H]3C(=O)CC[C@@]6(O)[C@@H](C4)N(CC4CC4)CC[C@]536)cc2s1)Oc1ccc2c3c1O[C@H]1C(=O)CC[C@@]4(O)[C@@H](C2)N(CC2CC2)CC[C@]314` [Compound 5, bis((4R,4aS,7aR,12bS)-3-(cyclopropylmethyl)-4a-hydroxy-7-oxo-2,3,4,4a,5,6,7,7a-octahydro-1H-4,12-methanobenzofuro[3,2-e]isoquinolin-9-yl) 3,3′-(thieno[3,2-b]thiophene-2,5-diyl)dipropionate], for which the half-life at 50 nM in data set [2] worked out at 17.1 min.
